Laboratory results from patent publication US4413009A, “N-((Alkylamino)carbonyl)-N-(((alkylamino)carbonyl)oxy)acylamides with antineoplastic activity” (priority 1982, dated 1983).

Each compound was assayed on HeLa cells (assay: HeLa cell colony cytotoxicity / growth inhibition test). Settings: 8 days, 0-50 μg/ml.
Type: cell-based, human
Protocol: HeLa cells were seeded in 24-well tissue culture plates at a concentration of 30 cells per well in 1 ml of growth medium (Eagle's minimum essential medium with 5 percent HIFCS). The plates were incubated at 36° C. for 24 hours after which the growth medium was removed. The cells were resuspended in 1 ml of fresh growth medium described above together with a measured quantity of (0-50 μg/ml) of one of the compounds of this invention. The 0 μg/ml concentration served as a control. The tissue culture plates were then incubated at 36° C. for 8 days at which time the medium was removed and the cells were fixed and stained with 0.1% crystal violet in 20% ethanol. The HeLa cell colonies were counted macroscopically, and comparisons of colony size in treated and control wells were made. Test compounds were considered cytotoxic at concentrations which reduced the number of HeLa cell colonies compared to control by 50% or more. Test compounds of the invention were considered to cause HeLa cell growth inhibition at concentrations which reduced the size of colonies by a measurable amount when compared to control.

In order of falling “Cell Growth Inhibition: concentration at which the size of the HeLa colonies were reduced by a measurable amount (as compared to control)” value:
1. CCNC(=O)ON(C(=O)CC)C(=O)NCC [Example 5, N-((ethylamino)carbonyl)-N-(((ethylamino)-carbonyl)oxy)propionamide]  50 µg/mL
2. CC(=O)N(OC(=O)Nc1ccccc1)C(=O)Nc1ccccc1 [Example 10, N-((Phenylamino)carbonyl)-N-(((phenylamino)carbonyl)oxy)acetamide]  50 µg/mL
3. CC(=O)N(OC(=O)Nc1cccc(C)c1)C(=O)Nc1cccc(C)c1 [Example 11, N-(((3-methylphenyl)amino)carbonyl)-N-((((3-methylphenyl)amino)carbonyl)oxy)acetamide]  50 µg/mL
4. CCNC(=O)ON(C(C)=O)C(=O)NCC [Example 2, N-((Ethylamino)carbonyl)-N-(((ethylamino)-carbonyl)oxy)acetamide]  12.5 µg/mL
5. CC(=O)N(OC(=O)NC(C)(C)C)C(=O)NC(C)(C)C [Example 3, N-(((1,1-dimethylethyl)amino)carbonyl)-N-((((1,1-dimethylethyl)amino)carbonyl)oxy)acetamide]  12.5 µg/mL
6. CCC(=O)N(OC(=O)NC)C(=O)NC [Example 4, N-((methylamino)carbonyl)-N-(((methyl-amino)carbonyl)oxy)propionamide]  12.5 µg/mL
7. CNC(=O)ON(C(=O)NC)C(=O)C(C)(C)C [Example 6, N-((Methylamino)carbonyl)-N-(((methylamino)-carbonyl)oxy)(2,2-dimethyl)propionamide]  12.5 µg/mL
8. CC(=O)N(OC(=O)Nc1ccc(C)cc1)C(=O)Nc1ccc(C)cc1 [Example 12, N-(((4-Methylphenyl)amino)carbonyl)-N-((((4-methylphenyl)amino)carbonyl)oxy)acetamide]  12.5 µg/mL
9. CCNC(=O)ON(C(=O)NCC)C(=O)c1ccccc1 [Example 16, N-((Ethylamino)carbonyl)-N-(((ethylamino)-carbonyl)oxy)benzamide]  12.5 µg/mL
10. CCCNC(=O)ON(C(C)=O)C(=O)NCCC [Example 9, N-((Propylamino)carbonyl)-N-(((propylamino)carbonyl)oxy)acetamide]  6.3 µg/mL
11. CCCCNC(=O)ON(C(C)=O)C(=O)NCCCC [Example 13, N-((Butylamino)carbonyl)-N-(((butylamino)carbonyl)oxy)acetamide]  3.1 µg/mL
12. CNC(=O)ON(C(=O)NC)C(=O)c1ccccc1 [Example 15, N-((Methylamino)carbonyl)-N-(((methylamino)-carbonyl)oxy)benzamide]  3.1 µg/mL
13. CC(=O)N(OC(=O)NC1CCCCC1)C(=O)NC1CCCCC1 [Example 7, N-((Cyclohexylamino)carbonyl)-N-(((cyclohexylamino)carbonyl)oxy)acetamide]  1.6 µg/mL
14. CC(=O)N(OC(=O)NC(C)C)C(=O)NC(C)C [Example 8, N-(((1-Methylethyl)amino)carbonyl)-N-((((1-methylethyl)amino)carbonyl)oxy)acetamide]  1.6 µg/mL
15. CC(C)NC(=O)ON(C(=O)NC(C)C)C(=O)c1ccccc1 [Example 14, N-(((1-Methylethyl)amino)carbonyl)-N-((((1-methylethyl)amino)carbonyl)oxy)benzamide]  0.8 µg/mL
